From patent publication US9302999B2, “Substituted triazoles as herbicides” (E. I. DU PONT DE NEMOURS AND COMPANY, priority 2012, dated 2016)

What was measured:
Type in all cases: in vivo
[1] = test system: pigweed (Amaranthus retroflexus); assay: Test A pre-/postemergence: pigweed
How it was run: (§1)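 Injury is scored visually on a scale where 0 means no effect and 100 complete control, comparing treated with untreated plants after approximately ten greenhouse days. Both preemergence and postemergence applications are made at the same time.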

[2] = test system: corn (Zea mays); assay: Test A pre-/postemergence: corn
How it was run: as §1

[3] = test system: winter wheat (Triticum aestivum); assay: Test C pre-/postemergence: winter wheat
How it was run: (§2)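 Preemergence on seeds in loam/sand, postemergence on 2–18 cm (1–4-leaf) plants in peat-based medium; compounds in non-phytotoxic solvent with surfactant. After 13–15 days in greenhouse, visual rating versus controls, 0 (no effect) to 100 (complete control).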

[4] = test system: galium (catchweed bedstraw, Galium aparine); assay: Test C pre-/postemergence: galium
How it was run: as §2

[5] = test system: corn (Zea mays); assay: Test C pre-/postemergence: corn
How it was run: as §2

[6] = test system: foxtail, giant (giant foxtail, Setaria faberii); assay: Test C pre-/postemergence: foxtail, giant
How it was run: as §2

[7] = test system: johnsongrass (Sorghum halepense); assay: Test C pre-/postemergence: johnsongrass
How it was run: as §2

[8] = test system: morningglory (Ipomoea coccinea); assay: Test C pre-/postemergence: morningglory
How it was run: as §2

[9] = test system: nutsedge, yellow (yellow nutsedge, Cyperus esculentus); assay: Test C pre-/postemergence: nutsedge, yellow
How it was run: as §2

[10] = test system: soybean (Glycine max); assay: Test C pre-/postemergence: soybean
How it was run: as §2

[11] = test system: velvetleaf (Abutilon theophrasti); assay: Test C pre-/postemergence: velvetleaf
How it was run: as §2

[12] = test system: chickweed (common chickweed, Stellaria media); assay: Test C postemergence: chickweed
How it was run: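 Crop and weed plants were grown in peat-vermiculite medium and treated postemergence at the 1- to 4-leaf stage (2-18 cm tall). After 13-15 days in a greenhouse, each species was rated visually against untreated controls on a 0-100 scale (0 no effect, 100 complete control).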

[13] = Postemergence, 125 g ai/ha, 0 to 100 scale, 0 is no effect, 100 is complete control
[14] = Postemergence, 500 g ai/ha, visual rating on 0 to 100 scale (0 no effect, 100 complete control), approximately ten days
[15] = Preemergence, 125 g ai/ha, 0 to 100 scale where 0 is no effect and 100 is complete control
[16] = Preemergence, 500 g ai/ha, 0 to 100 scale (0 no effect, 100 complete control)
[17] = Postemergence, 31 g ai/ha, scale 0 to 100 (0 no effect, 100 complete control)
[18] = Postemergence, 62 g ai/ha, scale 0 to 100 (0 no effect, 100 complete control)
[19] = Postemergence, 125 g ai/ha, scale 0 to 100, 0 no effect, 100 complete control
[20] = Postemergence, 250 g ai/ha, scale 0 to 100
[21] = Preemergence, 62 g ai/ha, scale of 0 to 100, 0 is no effect, 100 is complete control
[22] = Preemergence, 125 g ai/ha, scale 0 to 100, 0 no effect, 100 complete control
[23] = Preemergence, 250 g ai/ha, scale 0 to 100, 0 no effect, 100 complete control
[24] = Preemergence, 31 g ai/ha, scale of 0 to 100, 0 is no effect, 100 is complete control
[25] = 31 g ai/ha, scale 0 to 100 (0 no effect, 100 complete control)
[26] = 62 g ai/ha, scale 0 to 100 (0 no effect, 100 complete control)
[27] = 125 g ai/ha, scale 0 to 100, 0 no effect, 100 complete control
[28] = Postemergence, 500 g ai/ha, 0 to 100 scale, 0 is no effect, 100 is complete control
[29] = Preemergence, 31 g ai/ha, scale 0 (no effect) to 100 (complete control)

For `Cc1nn(-c2ccc(C(F)(F)F)c(F)c2)nc1Cc1ccnc(C(F)(F)F)c1` [Compound 162], the “Plant response rating, Pigweed” value [1, 13] was 100, the “Pigweed plant response rating” value [1, 14] was 100 and the “Plant response rating, Pigweed” value [1, 15] was 100. The “Plant response rating, Pigweed” value [1, 16] was 100, the “Plant response rating, Corn” value [2, 13] was 20 and the “Corn plant response rating” value [2, 14] was 40. For the same compound, the “Plant response rating, Corn” value [2, 15] was 20, the “Plant response rating, Corn” value [2, 16] was 30 and the “Plant response rating, Wheat” value [3, 17] was 20. For the same compound, the “Plant response rating, Wheat” value [3, 18] was 20, the “Plant response rating, Wheat” value [3, 19] was 25 and the “Plant response rating, Wheat” value [3, 20] was 25. The “Plant response rating, Wheat” value [3, 21] was 5, the “Plant response rating, Wheat” value [3, 22] was 20 and the “Plant response rating, Wheat” value [3, 23] was 35. For the same compound, the “Plant response rating, Galium” value [4, 17] was 75, the “Plant response rating, Galium” value [4, 18] was 75 and the “Plant response rating, Galium” value [4, 19] was 80. For the same compound, the “Plant response rating, Galium” value [4, 20] was 95, the “Plant response rating, Galium” value [4, 24] was 100 and the “Plant response rating, Galium” value [4, 22] was 100. For the same compound, the “Plant response rating, Galium” value [4, 23] was 100, the “Plant response rating, Corn” value [5, 17] was 15 and the “Plant response rating, Corn” value [5, 18] was 30. For the same compound, the “Plant response rating, Corn” value [5, 19] was 30, the “Plant response rating, Corn” value [5, 20] was 40 and the “Plant response rating, Corn” value [5, 24] was 5. The “Plant response rating, Corn” value [5, 21] was 20, the “Plant response rating, Corn” value [5, 22] was 20 and the “Plant response rating, Corn” value [5, 23] was 35. The “Plant response rating, Foxtail, Giant” value [6, 17] was 45, the “Plant response rating, Foxtail, Giant” value [6, 18] was 55 and the “Plant response rating, Foxtail, Giant” value [6, 19] was 65. The “Plant response rating, Foxtail, Giant” value [6, 20] was 98, the “Plant response rating, Foxtail, Giant” value [6, 24] was 98 and the “Plant response rating, Foxtail, Giant” value [6, 21] was 100. The “Plant response rating, Foxtail, Giant” value [6, 22] was 100, the “Plant response rating, Foxtail, Giant” value [6, 23] was 100 and the “Plant response rating, Johnsongrass” value [7, 17] was 45. For the same compound, the “Plant response rating, Johnsongrass” value [7, 18] was 80, the “Plant response rating, Johnsongrass” value [7, 19] was 80 and the “Plant response rating, Johnsongrass” value [7, 20] was 98. The “Plant response rating, Johnsongrass” value [7, 24] was 35, the “Plant response rating, Johnsongrass” value [7, 21] was 60 and the “Plant response rating, Johnsongrass” value [7, 22] was 98. The “Plant response rating, Johnsongrass” value [7, 23] was 98, the “Plant response rating, Morningglory” value [8, 24] was 55 and the “Plant response rating, Morningglory” value [8, 21] was 60. The “Plant response rating, Morningglory” value [8, 22] was 80, the “Plant response rating, Morningglory” value [8, 23] was 85 and the “Plant response rating, Nutsedge, Yellow” value [9, 17] was 5. The “Plant response rating, Nutsedge, Yellow” value [9, 18] was 5, the “Plant response rating, Nutsedge, Yellow” value [9, 19] was 5 and the “Plant response rating, Nutsedge, Yellow” value [9, 20] was 10. For the same compound, the “Plant response rating, Nutsedge, Yellow” value [9, 24] was 0, the “Plant response rating, Nutsedge, Yellow” value [9, 21] was 0 and the “Plant response rating, Nutsedge, Yellow” value [9, 22] was 5. The “Plant response rating, Nutsedge, Yellow” value [9, 23] was 5, the “Plant response rating, Soybean” value [10, 17] was 70 and the “Plant response rating, Soybean” value [10, 18] was 70. The “Plant response rating, Soybean” value [10, 19] was 75, the “Plant response rating, Soybean” value [10, 20] was 95 and the “Plant response rating, Soybean” value [10, 24] was 15. The “Plant response rating, Soybean” value [10, 21] was 15, the “Plant response rating, Soybean” value [10, 23] was 25 and the “Plant response rating, Velvetleaf” value [11, 17] was 35. For the same compound, the “Plant response rating, Velvetleaf” value [11, 18] was 55, the “Plant response rating, Velvetleaf” value [11, 19] was 60 and the “Plant response rating, Velvetleaf” value [11, 20] was 85. The “Plant response rating, Velvetleaf” value [11, 24] was 55, the “Plant response rating, Velvetleaf” value [11, 21] was 80 and the “Plant response rating, Velvetleaf” value [11, 22] was 100. The “Plant response rating, Velvetleaf” value [11, 23] was 100, the “Plant response rating, Chickweed” value [12, 25] was 100 and the “Plant response rating, Chickweed” value [12, 26] was 100. For the same compound, the “Plant response rating, Chickweed” value [12, 27] was 100 and the “Plant response rating, Chickweed” value ([12]; 250 g ai/ha, scale 0 to 100) was 100.

With `CCc1nn(-c2ccc(F)cc2)nc1Oc1ccnc(C(F)(F)F)c1` [Compound 166] the “Plant response rating, Pigweed” value [1, 13] was 100, the “Pigweed plant response rating” value [1, 28] was 100 and the “Plant response rating, Pigweed” value [1, 15] was 100. For the same compound, the “Plant response rating, Pigweed” value [1, 16] was 100, the “Plant response rating, Corn” value [2, 13] was 20 and the “Corn plant response rating” value [2, 28] was 30. The “Plant response rating, Corn” value [2, 15] was 10, the “Plant response rating, Corn” value [2, 16] was 30 and the “Plant response rating, Wheat” value [3, 17] was 5. For the same compound, the “Plant response rating, Wheat” value [3, 18] was 5, the “Plant response rating, Wheat” value [3, 19] was 5 and the “Plant response rating, Wheat” value [3, 20] was 10. For the same compound, the “Plant response rating, Wheat” value [3, 29] was 0, the “Plant response rating, Wheat” value [3, 21] was 0 and the “Plant response rating, Wheat” value [3, 22] was 5. The “Plant response rating, Wheat” value [3, 23] was 15, the “Plant response rating, Galium” value [4, 17] was 50 and the “Plant response rating, Galium” value [4, 18] was 50. The “Plant response rating, Galium” value [4, 19] was 60, the “Plant response rating, Galium” value [4, 20] was 80 and the “Plant response rating, Galium” value [4, 29] was 10. The “Plant response rating, Galium” value [4, 21] was 10, the “Plant response rating, Galium” value [4, 22] was 90 and the “Plant response rating, Galium” value [4, 23] was 100. The “Plant response rating, Corn” value [5, 17] was 15, the “Plant response rating, Corn” value [5, 18] was 15 and the “Plant response rating, Corn” value [5, 19] was 15. For the same compound, the “Plant response rating, Corn” value [5, 20] was 15, the “Plant response rating, Corn” value [5, 29] was 0 and the “Plant response rating, Corn” value [5, 22] was 5. The “Plant response rating, Corn” value [5, 23] was 20, the “Plant response rating, Foxtail, Giant” value [6, 17] was 20 and the “Plant response rating, Foxtail, Giant” value [6, 18] was 40. The “Plant response rating, Foxtail, Giant” value [6, 19] was 40, the “Plant response rating, Foxtail, Giant” value [6, 20] was 40 and the “Plant response rating, Foxtail, Giant” value [6, 29] was 100. The “Plant response rating, Foxtail, Giant” value [6, 21] was 100, the “Plant response rating, Foxtail, Giant” value [6, 22] was 100 and the “Plant response rating, Foxtail, Giant” value [6, 23] was 100. For the same compound, the “Plant response rating, Johnsongrass” value [7, 17] was 10, the “Plant response rating, Johnsongrass” value [7, 18] was 15 and the “Plant response rating, Johnsongrass” value [7, 19] was 20. The “Plant response rating, Johnsongrass” value [7, 20] was 20, the “Plant response rating, Johnsongrass” value [7, 29] was 10 and the “Plant response rating, Johnsongrass” value [7, 21] was 30. For the same compound, the “Plant response rating, Johnsongrass” value [7, 22] was 75, the “Plant response rating, Johnsongrass” value [7, 23] was 100 and the “Plant response rating, Morningglory” value [8, 17] was 30. For the same compound, the “Plant response rating, Morningglory” value [8, 18] was 30, the “Plant response rating, Morningglory” value [8, 19] was 35 and the “Plant response rating, Morningglory” value [8, 20] was 65. The “Plant response rating, Morningglory” value [8, 21] was 10, the “Plant response rating, Morningglory” value [8, 22] was 25 and the “Plant response rating, Morningglory” value [8, 23] was 45. For the same compound, the “Plant response rating, Nutsedge, Yellow” value [9, 17] was 0, the “Plant response rating, Nutsedge, Yellow” value [9, 18] was 5 and the “Plant response rating, Nutsedge, Yellow” value [9, 19] was 5. The “Plant response rating, Nutsedge, Yellow” value [9, 20] was 10, the “Plant response rating, Nutsedge, Yellow” value [9, 29] was 0 and the “Plant response rating, Nutsedge, Yellow” value [9, 21] was 0. The “Plant response rating, Nutsedge, Yellow” value [9, 22] was 5, the “Plant response rating, Nutsedge, Yellow” value [9, 23] was 15 and the “Plant response rating, Soybean” value [10, 17] was 35. The “Plant response rating, Soybean” value [10, 18] was 35, the “Plant response rating, Soybean” value [10, 19] was 35 and the “Plant response rating, Soybean” value [10, 20] was 35. For the same compound, the “Plant response rating, Soybean” value [10, 29] was 5, the “Plant response rating, Soybean” value [10, 21] was 5 and the “Plant response rating, Soybean” value [10, 22] was 20. For the same compound, the “Plant response rating, Soybean” value [10, 23] was 35, the “Plant response rating, Velvetleaf” value [11, 17] was 10 and the “Plant response rating, Velvetleaf” value [11, 18] was 20. For the same compound, the “Plant response rating, Velvetleaf” value [11, 19] was 20, the “Plant response rating, Velvetleaf” value [11, 20] was 30 and the “Plant response rating, Velvetleaf” value [11, 29] was 0. For the same compound, the “Plant response rating, Velvetleaf” value [11, 21] was 0, the “Plant response rating, Velvetleaf” value [11, 22] was 15 and the “Plant response rating, Velvetleaf” value [11, 23] was 60. For the same compound, the “Plant response rating, Chickweed” value [12, 25] was 55, the “Plant response rating, Chickweed” value [12, 26] was 90 and the “Plant response rating, Chickweed” value [12, 27] was 90. The “Plant response rating, Chickweed” value ([12]; 250 g ai/ha, scale 0 to 100) was 90.
